The text below walks through data of publication PMC2836207 (Journal of medicinal chemistry, 2009).

This assay deals with MDA-MB-231 cells (Homo sapiens, UniProt P05556+P26006). Put plainly: on-bead whole cell binding assay. The class given is cell-based. Particulars: cell-growth-on-bead assay.
Chain of MDA-MB-231 cells (P26006 33-1051): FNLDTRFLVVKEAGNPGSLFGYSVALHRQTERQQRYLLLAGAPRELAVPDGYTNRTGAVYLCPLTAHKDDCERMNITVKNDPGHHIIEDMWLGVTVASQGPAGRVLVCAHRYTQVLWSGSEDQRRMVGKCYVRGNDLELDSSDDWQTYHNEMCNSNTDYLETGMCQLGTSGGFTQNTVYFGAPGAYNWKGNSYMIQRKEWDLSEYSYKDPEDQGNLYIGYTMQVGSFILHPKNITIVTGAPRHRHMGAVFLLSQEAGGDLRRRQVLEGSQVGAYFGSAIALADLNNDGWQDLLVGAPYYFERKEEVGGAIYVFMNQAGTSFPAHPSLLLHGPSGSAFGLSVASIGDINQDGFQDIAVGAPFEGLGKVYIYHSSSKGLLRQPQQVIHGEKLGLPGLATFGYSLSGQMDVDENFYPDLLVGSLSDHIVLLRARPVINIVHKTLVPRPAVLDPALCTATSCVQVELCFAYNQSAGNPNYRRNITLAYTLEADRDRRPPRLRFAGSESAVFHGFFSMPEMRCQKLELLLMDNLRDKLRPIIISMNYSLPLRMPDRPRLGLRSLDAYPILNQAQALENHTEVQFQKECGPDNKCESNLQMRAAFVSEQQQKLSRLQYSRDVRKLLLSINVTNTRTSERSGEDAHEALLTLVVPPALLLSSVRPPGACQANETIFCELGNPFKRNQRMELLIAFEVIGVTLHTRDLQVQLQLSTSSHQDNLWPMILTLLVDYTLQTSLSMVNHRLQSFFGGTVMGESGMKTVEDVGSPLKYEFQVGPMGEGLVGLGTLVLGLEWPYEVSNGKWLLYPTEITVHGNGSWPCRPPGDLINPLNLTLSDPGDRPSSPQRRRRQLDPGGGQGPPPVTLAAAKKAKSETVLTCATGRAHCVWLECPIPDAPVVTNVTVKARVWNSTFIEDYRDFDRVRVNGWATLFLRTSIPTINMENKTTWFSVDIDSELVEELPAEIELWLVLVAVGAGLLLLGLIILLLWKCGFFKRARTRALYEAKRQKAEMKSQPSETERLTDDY
Chain of MDA-MB-231 cells (P05556 21-798): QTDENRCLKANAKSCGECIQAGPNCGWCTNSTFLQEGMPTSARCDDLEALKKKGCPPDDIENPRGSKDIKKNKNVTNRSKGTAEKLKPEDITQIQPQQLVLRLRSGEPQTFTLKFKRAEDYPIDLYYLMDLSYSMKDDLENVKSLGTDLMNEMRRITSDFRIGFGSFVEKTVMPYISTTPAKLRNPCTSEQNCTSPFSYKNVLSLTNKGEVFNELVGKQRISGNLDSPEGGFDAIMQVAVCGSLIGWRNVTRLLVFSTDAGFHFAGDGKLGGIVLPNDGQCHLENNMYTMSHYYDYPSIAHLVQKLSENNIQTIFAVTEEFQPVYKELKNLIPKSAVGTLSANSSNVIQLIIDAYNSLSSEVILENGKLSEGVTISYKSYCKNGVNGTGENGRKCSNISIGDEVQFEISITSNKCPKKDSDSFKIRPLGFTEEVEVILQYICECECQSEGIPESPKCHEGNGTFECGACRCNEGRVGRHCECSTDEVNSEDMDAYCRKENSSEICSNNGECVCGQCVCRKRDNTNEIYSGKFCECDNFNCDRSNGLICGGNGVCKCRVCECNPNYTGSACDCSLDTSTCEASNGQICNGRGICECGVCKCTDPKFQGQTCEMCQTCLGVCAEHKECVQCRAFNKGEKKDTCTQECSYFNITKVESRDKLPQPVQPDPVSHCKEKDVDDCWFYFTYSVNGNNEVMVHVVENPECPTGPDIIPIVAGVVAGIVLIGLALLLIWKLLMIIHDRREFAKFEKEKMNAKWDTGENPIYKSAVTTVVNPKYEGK

For cEGLGEWc, the “cell binding to peptide bead” value is on record as “shown to bind”.
